Each block holds one compound with its values, some of them ahead of it.
Columns and labels:
[1] = tested on: HT-1080; experiment: Induction of ferroptosis in human HT-1080 cells assessed as inhibition of (cystine-glutamate antiporter) system Xc- mediated cystine transport; assay type: functional, cell-based
[2] = Induction of ferroptosis in human BJeLR cells assessed as inhibition of (cystine-glutamate antiporter) system Xc- mediated cystine transport; assay type: functional, cell-based; details: bjelr cell
[3] = tested on: LN-229; experiment: Induction of ferroptosis in human LN-229 cells assessed as GPX4 degradation; assay type: functional, cell-based
[4] = tested on: U-118-MG; experiment: Induction of ferroptosis in human U-118-MG cells assessed as GPX4 degradation; assay type: functional, cell-based
[5] = tested on: MCF7; experiment: Anticancer activity against human MCF7 cells assessed as inhibition of cell viability incubated for 48 hrs by CCK-8 assay; assay type: functional, cell-based; details: MCF7, 48 h
[6] = tested on: MDA-MB-231; experiment: Anticancer activity against human MDA-MB-231 cells assessed as inhibition of cell viability incubated for 48 hrs by CCK-8 assay; assay type: functional, cell-based; details: MDA-MB-231, 48 h
[7] = tested on: MDA-MB-231; experiment: Cytotoxicity against human MDA-MB-231 cells assessed as inhibition of cell viability incubated for 24 hrs by sulforhodamine B assay; assay type: functional, cell-based; details: MDA-MB-231, 24 h
[8] = tested on: DBTRG-05MG; experiment: Cytotoxicity against human DBTRG-05MG cells assessed as inhibition of cell viability incubated for 24 hrs by sulforhodamine B assay; assay type: functional, cell-based
[9] = tested on: HCT-116; experiment: Antitumor activity against human HCT-116 cells assessed as reduction in cell viability incubated for 48 hrs by CCK8 assay; assay type: functional, cell-based; details: HCT-116, 48 h
[10] = tested on: RKO; experiment: Antitumor activity against human RKO cells assessed as reduction in cell viability incubated for 48 hrs by CCK8 assay; assay type: functional, cell-based
[11] = tested on: SW480; experiment: Antitumor activity against human SW480 cells assessed as reduction in cell viability incubated for 48 hrs by CCK8 assay; assay type: functional, cell-based; details: SW480, 48 h
[12] = tested on: Calu-1; experiment: Induction of ferroptosis in human Calu-1 cells assessed as inhibition of (cystine-glutamate antiporter) system Xc- mediated cystine transport; assay type: functional, cell-based
[13] = Antiproliferative activity against BALB/C mouse TBCP-1 cells assessed as inhibition of cell proliferation incubated for 3 days by sulforhodamine B colorimetric assay; assay type: functional, cell-based; details: TBCP-1, 72 h
[14] = tested on: SK-BR-3; experiment: Antiproliferative activity against human SK-BR-3 cells assessed as inhibition of cell proliferation incubated for 3 days by sulforhodamine B colorimetric assay; assay type: functional, cell-based; details: SK-BR-3, 72 h
[15] = tested on: HEp-2; experiment: Anticancer activity against human HEp-2 cells assessed as reduction in cell viability incubated for 72 hrs by MTT assay; assay type: functional, cell-based; details: HEp-2, 72 h
[16] = tested on: THP-1; experiment: Anticancer activity against human THP-1 cells assessed as reduction in cell viability incubated for 72 hrs by MTT assay; assay type: functional, cell-based; details: THP-1, 72 h
[17] = tested on: CNE; experiment: Anticancer activity against human CNE cells assessed as reduction in cell viability incubated for 72 hrs by MTT assay; assay type: functional, cell-based
[18] = Anticancer activity against human U87 cells assessed as reduction in cell viability incubated for 72 hrs by MTT assay; assay type: functional, cell-based, U-87MG ATCC; details: U-87 MG
[19] = tested on: A 172; experiment: Anticancer activity against human A-172 cells assessed as reduction in cell viability incubated for 72 hrs by MTT assay; assay type: functional, cell-based; details: A 172, 72 h
[20] = tested on: HL-60; experiment: Anticancer activity against human HL-60 cells assessed as reduction in cell viability incubated for 72 hrs by MTT assay; assay type: functional, cell-based; details: HL-60, 72 h
[21] = tested on: HT-1080; experiment: Antitumor activity against human HT-1080 cells assessed as inhibition of cell viability; assay type: functional, cell-based
[22] = tested on: Huh-7; experiment: Antitumor activity against human Huh-7 cells assessed as inhibition of cell viability; assay type: functional, cell-based
[23] = tested on: Hep 3B2; experiment: Antitumor activity against human Hep3B cells assessed as inhibition of cell viability; assay type: functional, cell-based
[24] = tested on: HepG2; experiment: Antitumor activity against human HepG2 cells assessed as inhibition of cell viability; assay type: functional, cell-based
[25] = Induction of ferroptosis in human U-87 MG cells assessed as decrease in GPX4 protein expression incubated for 48 hrs by Western blot analysis; assay type: functional, cell-based, U-87MG ATCC
[26] = tested on: Glioblastoma cell line; experiment: Induction of ferroptosis in human primary glioblastoma cells assessed as decrease in GPX4 protein expression incubated for 48 hrs by Western blot analysis; assay type: functional, cell-based
[27] = tested on: G-361; experiment: Antiproliferative activity against human G-361 cells harboring BRAF V600E mutant assessed as cell viability incubated for 72 hrs by crystal violet staining based assay; assay type: functional; details: G-361, 72 h
[28] = tested on: SK-MEL-28; experiment: Antiproliferative activity against human SK-MEL-28 cells harboring BRAF V600E mutant assessed as cell viability incubated for 72 hrs by crystal violet staining based assay; assay type: functional; details: SK-MEL-28, 72 h
[29] = tested on: SW480; experiment: Anticancer activity against human SW480 cells assessed as reduction in cell viability incubated for 24 hrs in presence of 10% FBS by CCK8 assay; assay type: functional, cell-based; details: SW480, 24 h
[30] = tested on: AGS; experiment: Anticancer activity against human AGS cells assessed as inhibition of cell viability incubated for 24 hrs by CCK-8 assay; assay type: functional, cell-based
[31] = tested on: NCI-N87; experiment: Anticancer activity against human NCI-N87 cells assessed as inhibition of cell viability incubated for 24 hrs by CCK-8 assay; assay type: functional, cell-based; details: NCI-N87, 24 h

IC50 [1]: 0.1 µM
IC50 [2]: 0.1 µM
Structure (SMILES): COC(=O)c1ccc([C@H]2c3[nH]c4ccccc4c3C[C@H](C(=O)OC)N2C(=O)CCl)cc1

IC50 [3]: 4.2 µM
IC50 [4]: 2.6 µM
Structure (SMILES): O=S(=O)(NC1CCCCC1)c1ccc2c(c1)C(=NO)c1cc(S(=O)(=O)NC3CCCCC3)ccc1-2

IC50 [5]: 41.9 µM
IC50 [6]: 53.5 µM
Structure (SMILES): COc1cc(/C=C/C(=O)CC(=O)/C=C/c2ccc(O)c(OC)c2)ccc1O [CURCUMIN]

Structure (SMILES): CC(C)(C)c1ccc(S(=O)(=O)/C=C/C#N)cc1 [BAY-11-7085]
IC50 [7]: 4.31 µM
IC50 [8]: 5.53 µM

IC50 [9]: 47.6 µM
IC50 [11]: 15.1 µM
Structure (SMILES): C=CCc1ccc(O)c(-c2ccc(O)c(CC=C)c2)c1 [HONOKIOL]
IC50 [10]: 11.4 µM

IC50 [1]: 450 µM
IC50 [12]: 460 µM
Structure (SMILES): O=C(O)c1cc(/N=N/c2ccc(S(=O)(=O)Nc3ccccn3)cc2)ccc1O [SULFASALAZINE]

IC50 [14]: 0.0072 µM
Structure (SMILES): CCOc1cc2ncc(C#N)c(Nc3ccc(OCc4ccccn4)c(Cl)c3)c2cc1NC(=O)/C=C/CN(C)C [NERATINIB]
IC50 [13]: 0.117 µM

IC50 [16]: 9.05 µM
IC50 [20]: 6.82 µM
Structure (SMILES): C[C@H]1[C@@H](O)O[C@@H]2O[C@@]3(C)CC[C@H]4[C@H](C)CC[C@@H]1[C@@]24OO3 [ARTENIMOL]
IC50 [15]: 18.1 µM
IC50 [17]: 18.4 µM
IC50 [18]: 50 µM
IC50 [19]: 66 µM

IC50 [21]: < 10 µM
IC50 [22]: < 10 µM
IC50 [24]: < 10 µM
Structure (SMILES): CNC(=O)c1cc(Oc2ccc(NC(=O)Nc3ccc(Cl)c(C(F)(F)F)c3)cc2)ccn1 [SORAFENIB]
IC50 [23]: < 10 µM

IC50 [25]: < 5 µM
IC50 [26]: 2 µM
Structure (SMILES): COc1ccc(/C=C/C(=O)C(CC2CCC2)C(=O)/C=C/c2ccc(OC)c(OC)c2)cc1OC [ROSOLUTAMIDE]

IC50 [28]: 2.4 µM
Structure (SMILES): Cc1cc(-c2nc(-c3ccc(OC(F)(F)F)cc3)no2)nn1Cc1ccnc(N2CCN(C3CC3)CC2)c1
IC50 [27]: 4.8 µM

IC50 [29]: 8.15 µM
Structure (SMILES): CCC(C)/C=C(\C)[C@H]1C(C)=C[C@@]2(C)C[C@@H](C)CC[C@@H]2[C@H]1C(=O)C1=C/C(=C/c2ccc(O)cc2)NC1=O (stereo partly drawn) [TALAROCONVOLUTIN A]

Structure (SMILES): C[C@@H]1CC[C@@]2(OC1)O[C@H]1C[C@H]3[C@@H]4CC=C5C[C@@H](O)C[C@@H](O[C@H]6O[C@H](C)[C@H](O)[C@H](O)[C@H]6O[C@@H]6O[C@@H](C)[C@H](O)[C@@H](O)[C@H]6O)[C@]5(C)[C@H]4CC[C@]3(C)[C@H]1[C@@H]2C
IC50 [30]: 10.3 µM
IC50 [31]: 21.3 µM

IC50 [2]: < 10 µM
Structure (SMILES): CCCC[S@@](=N)(=O)CC[C@@H](N)C(=O)O
